SMILES strings stand for the structures. The source made the active and inactive calls. The calls are words filed in the database; no cut-off is given here.

The test system of data set [1] is Salmonella typhimurium. The experiment in a line: Effect on viability of Salmonella enterica serovar Typhimurium 4/74 at 100 uM after 4 hrs. As to conditions: Salmonella enterica subsp. enterica serovar Typhimurium. Format: functional, organism-based.
The test system of data set [2] is Salmonella enterica subsp. enterica serovar Typhimurium. The experiment in a line: Inhibition of T3SS-1-mediated secretion of SipA protein in Salmonella enterica serovar Typhimurium 4/74 at 100 uM after 4 hrs by SDS-PAGE.
Data set [3] has the same test system. Kind of data set: Inhibition of T3SS-1-mediated secretion of SipC protein in Salmonella enterica serovar Typhimurium 4/74 at 100 uM after 4 hrs by SDS-PAGE.
Data set [4] shares this test system. Kind of data set: Inhibition of T3SS-1-mediated secretion of SipC protein in Salmonella enterica serovar Typhimurium 4/74 after 4 hrs by SDS-PAGE.
For data set [5], the system named is Salmonella typhimurium. The experiment in a line: Reduction of Salmonella enterica serovar Typhimurium 4/74 invasion of human HeLa cells preincubated at 100 uM for 1 hr relative to control. Format: functional, Salmonella enterica subsp. enterica serovar Typhimurium. Also on record: scale not given: the % may be the effect or the level left.
Data set [6] relates to Salmonella typhimurium. Kind of data set: Suppression of 1.5 hrs 100 uM pretreated Salmonella enterica serovar Typhimurium 4/74 infection-induced intestinal secretory response in Friesian bull intestinal ligated loop model. The format is functional, organism-based. The conditions noted are these: Salmonella enterica subsp. enterica serovar Typhimurium.
Data set [7] relates to Salmonella typhimurium. Kind of data set: Suppression of 1.5 hrs 100 uM pretreated Salmonella enterica serovar Typhimurium 4/74 infection-induced inflammatory response in Friesian bull intestinal ligated loop model assessed as polymorphonuclear leucocyte influx. The format is functional, organism-based. As to conditions: Salmonella enterica subsp. enterica serovar Typhimurium.

The test system of data set [8] is Salmonella enterica subsp. enterica serovar Typhimurium. Kind of data set: Inhibition of T3SS-1-mediated secretion of SopE protein in Salmonella enterica serovar Typhimurium 4/74 at 100 uM after 4 hrs by SDS-PAGE.
The subject of data set [9] is Salmonella typhimurium. The experiment in a line: Suppression of Salmonella enterica serovar Typhimurium 4/74 infection-induced intestinal secretory response in Friesian bull intestinal ligated loop model at 100 uM coadministered with bacterial challenge. Format: functional, organism-based. The conditions noted are these: Salmonella enterica subsp. enterica serovar Typhimurium.

For another data set, the system named is HeLa. Kind of data set: Toxicity against human HeLa cells at 0.1 to 10 uM after 3 hrs. Format: cell-based.
Data set [10] has as its system Salmonella enterica subsp. enterica serovar Typhimurium. The experiment in a line: Inhibition of T3SS-1 associated virulence phenotype in 1.5 hrs 100 uM pretreated Salmonella enterica serovar Typhimurium 4/74 assessed as reduction of contact dependent hemolysis of sheep erythrocytes relative to wild-type.
For data set [11] the test system is unchanged. Kind of data set: Inhibition of T3SS-1-mediated secretion of SopE protein in Salmonella enterica serovar Typhimurium 4/74 after 4 hrs by SDS-PAGE.
For data set [12] the test system is unchanged. Kind of data set: Inhibition of T3SS-1-mediated secretion of SipA protein in Salmonella enterica serovar Typhimurium 4/74 after 4 hrs by SDS-PAGE.
Data set [13] concerns Salmonella typhimurium. Kind of data set: Suppression of Salmonella enterica serovar Typhimurium 4/74 infection-induced inflammatory response in Friesian bull intestinal ligated loop model assessed as polymorphonuclear leucocyte influx at 100 uM coadministered with bacterial challenge. Format: functional, organism-based. As to conditions: Salmonella enterica subsp. enterica serovar Typhimurium.

Take `O=C(N/N=C/c1cc(Cl)cc(Cl)c1O)c1ccccc1`: the result in the data set with Salmonella typhimurium [1], with Salmonella typhimurium [9] and in the data set with Salmonella typhimurium [13] was inactive. Besides, the result (in data set [2]; in data set [3]; in the data set on Salmonella typhimurium [6]; in the data set with Salmonella typhimurium [7]; in data set [8]; in data set [10]) was Active. Further, in data set [4], the “%max” value is “Dose-dependent effect”. For the same compound, the Activity in the data set on Salmonella typhimurium [5] was 60%; in the data set on HeLa it was “Non-toxic”; in [11] it was “Dose-dependent effect”; in [12] it was “Dose-dependent effect”.
As for `O=C(N/N=C/c1cc(Br)cc(Br)c1O)c1ccc([N+](=O)[O-])cc1`, the outcome with Salmonella typhimurium [1], with Salmonella typhimurium [9] and in the data set with Salmonella typhimurium [13] was inactive. In addition, the result (in data set [2]; in data set [3]; in the data set on Salmonella typhimurium [6]; with Salmonella typhimurium [7]; in data set [8]; in data set [10]) was Active. Moreover, the “%max” value in data set [4] is “Dose-dependent effect”. The Activity in the data set on Salmonella typhimurium [5] is 47%; in the data set with HeLa, “Non-toxic”; in data set [11] it was “Dose-dependent effect”; in [12] it was “Dose-dependent effect”.

These data come from ChEMBL document CHEMBL1157369, “Inhibition of type III secretion in Salmonella enterica serovar Typhimurium by small-molecule inhibitors” (Antimicrob Agents Chemother, 2007).
